Experimental data from patent US9464092B2, “Transient protection of normal cells during chemotherapy” (G1 Therapeutics, Inc., priority 2013, dated 2016).
Read-outs that look alike come from different tables or passages of the source.

Key:
[1] = Metabolic stability in liver microsomes; format: in vitro ADME, human, dog, rat, monkey, and mouse; conditions: Sprague-Dawley (rat), liver microsomes, pH 7.4; each of the species tested (human, monkey, dog, rat, mouse), 1 uM
Experimental: Human, mouse, and dog liver microsomes were purchased from Xenotech, and Sprague-Dawley rat liver microsomes were prepared by Absorption Systems. The reaction mixture comprising 0.5 mg/mL of liver microsomes, 100 mM of potassium phosphate, pH 7.4, 5 mM of magnesium chloride, and 1 uM of test compound was prepared. The test compound was added into the reaction mixture at a final concentration of 1 uM. An aliquot of the reaction mixture (without cofactor) was incubated in shaking water bath at 37 deg. C. for 3 minutes. The control compound, testosterone, was run simultaneously with the test compound in a separate reaction. The reaction was initiated by the addition of cofactor (NADPH), and the mixture was then incubated in a shaking water bath at 37 deg. C. Aliquots (100 μL) were withdrawn at 0, 10, 20, 30, and 60 minutes for the test compound and 0, 10, 30, and 60 minutes for testosterone. […] Test compound samples were analyzed using the Orbitrap high resolution mass spectrometer to quantify the disappearance of parent test compound and detect the appearance of metabolites. […] Half-lives were calculated using GraphPad software, fitting to a single-phase exponential decay equation.
When calculated half-life was longer than the duration of the experiment, the half-life was expressed as >the longest incubation time. The calculated half-life is also listed in parentheses. […]

[2] = test system: HS68 cells (human fibroblast, Rb-positive); assay: Cellular wash-out experiment, HS68; format: cell-based
Experimental: EMBO J, 21(12)2936-2945 (2002) and Ruas et al. Mol Cell Biol, 27(12)-4273-4282 (2007)). […] On day 3, one set of treated cell samples were harvested in triplicate (0 Hour sample). Remaining cells were washed two times in PBS-CMF and returned to culture media lacking test compound. Sets of samples were harvested in triplicate at 24, 40, and 48 hours. Upon harvesting cells, samples were stained with propidium iodide staining solution and samples run on Dako Cyan Flow Cytometer. The fraction of cells in G0-G1 DNA cell cycle versus the fraction in S-phase DNA cell cycle was determined using FlowJo 7.2 0.2 analysis.

[3] = test system: human renal proximal tubule epithelial cells (Rb-positive); assay: Cellular wash-out experiment, renal proximal tubule epithelial cells; format: cell-based; conditions: 300 nM, compared to compounds T, Q, GG, or U
Experimental: Alternatively, the same experiment was done using normal Renal Proximal Tubule Epithelial Cells (Rb-positive) obtained from American Type Culture Collection (ATCC, Manassas, Va.). Cells were grown in an incubator at 37° C. in a humidified atmosphere of 5% CO2 in Renal Epithelial Cell Basal Media (ATCC) supplemented with Renal Epithelial Cell Growth Kit (ATCC) in 37° C. humidified incubator.
Upon harvesting cells, samples were stained with propidium iodide staining solution and samples run on Dako Cyan Flow Cytometer. The fraction of cells in G0-G1 DNA cell cycle versus the fraction in S-phase DNA cell cycle was determined using FlowJo 7.2 0.2 analysis.

[4] = PD0332991 pharmacokinetics / HSPC arrest in humans; format: in vivo
Experimental: When calculated half-life was longer than the duration of the experiment, the half-life was expressed as >the longest incubation time. The calculated half-life is also listed in parentheses. […] The timely resumption of cellular proliferation is necessary for tissue repair, and therefore an overly long period of arrest is undesirable in healthy cells such as HSPCs. The characteristics of a CDK4/6 inhibitor that dictate its arresting duration are its pharmacokinetic (PK) and enzymatic half-lives. Once initiated, a G1-arrest in vivo will be maintained as long as circulating compound remains at an inhibitory level, and as long as the compound engages the enzyme. […] […]. […] […]. These observations may explain the severe granulocytopenia seen with PD0332991 in the clinic.

[5] = mice; cited from earlier work
[6] = humans; cited from earlier work
[7] = Grade 3/4 neutropenia and leukopenia; cited from earlier work
[8] = test system: HSPC (LKS+) and myeloid progenitor cells (LKS-); conditions: single oral dose 150 mg/kg, mice; cited from earlier work
[9] = test system: RB-negative SCLC cell lines (H69, H82, H209, H345, NCI417, or SHP-77); assay: EdU proliferation, RB-negative SCLC cell lines; conditions: 24 hours
[10] = test system: RB-intact, Cdk4/6-dependent cell line (WM2664 or tHS68); assay: EdU proliferation, RB-intact Cdk4/6-dependent cell line; conditions: 24 hours

Structure (SMILES): CC(=O)c1c(C)c2cnc(Nc3ccc(N4CCNCC4)cn3)nc2n(C2CCCC2)c1=O [PD0332991, 6-acetyl-8-cyclopentyl-5-methyl-2-(5-piperazin-1-yl-pyridin-2-ylammino)-8H-pyrido-[2,3-d]-pyrimidin-7-one]
- half-life at 1 uM [1]: > 1 h
- time post wash out for cells to return to normal baseline cell division ([2]; 300 nM, HS68 cells): greater than 48 hours
- duration of cell cycle arrest in human cells after compound is removed (wash-out) ([2]; in vitro wash-out experiment): more than forty hours
- return to baseline levels of cell division after wash out [3]: took significantly longer to return to baseline levels of cell division
- duration of cell cycle arrest of HSPC after a single administration [4]: approximately one week
- PK half-life [5]: 6 h
- PK half-life [6]: 27 h
- patients requiring a dose interruption [7]: 71%
- patients requiring a dose reduction [7]: 35%
- duration of sustained reduction in HSPC and myeloid progenitor EdU incorporation [8]: greater than 36 hours
- time post oral dosing at which HSPC and myeloid progenitor cells return to baseline cell division [8]: 48 h
- effect on proliferation (EdU, percent of cells in S-phase) [9]: does not affect the growth of the Rb-negative small cell lung cancer cell lines
- effect on proliferation (EdU, percent of cells in S-phase) [10]: inhibits the Rb-positive cell line (WM2664)
